From patent publication US20250108023A1, “Products for Masking Bitterness” (The Third People's Hospital of Henan Province, priority 2023, published 2025) come the findings set out here.

A short description of this assay: Oral spray bitterness masking taste test by volunteers with Coptis chinensis standard bitter solution. Further details: key to bitterness value after drug: bitterness value 0.5–5.5; 1 = none, 5 = unbearable; key to Reduction of bitterness: drop in bitterness value (0.5–5.5 scale) from initial. Format: in vivo, healthy volunteers. The settings on record: for Duration >: retention time until bitterness rises; for inhibition in vivo at 0.2 %: Homo sapiens, read-out: Reduction range; for bitterness value after drug: initial bitterness 4.0, 16 cases. How it is done:
Purpose of the experiment: it is to screen out compounds that take effect within 5 seconds, last for 30-120 seconds, and it is expected, by using such kind of compounds, the taste of the drug cannot be felt during the duration (30-120 seconds) when taking the drug.
Principle of the experiment: simulate the process of taking medicine and using the taste masking agents, first spray about 0.5 ml of oral spray on the throat (3 times), and after it takes effect quickly, taste 10 ml of bitter standard solution to screen drugs that can be used in advance and can mask the bitter taste.
• 1: Volunteer screening. The research team strictly screened the recruited volunteers and finally selected healthy volunteers as subjects. They signed informed consent forms before the experiment; • 2: Standard bitterness sample preparation. The bitterness of the samples was divided into five levels, and each level was assigned a certain bitterness value range; • 3: The sensory standard was corrected by the oral taste evaluation method, that is, the sensory standard was corrected by comparing the taste evaluation of the volunteers with the established bitterness value of the reference sample group. Specific steps: when the volunteers are doing the oral tasting test, the reference solutions of various concentrations are placed in the tasting cups, and the volunteers hold one of the solutions in their mouths, time it, and rinse their mouths by using the solution so that the bitter taste perception area at the root and sides of the tongue can fully feel the bitter taste of the drug. […] Then dilute all the selected taste masking drugs, prepare the solution, take 10 ml and put it into the spray bottle, spray it into the mouth 3 times, stay for 5 seconds, drink 10 ml of standard bitterness solution, feel and record the bitterness value, keep the standard bitterness solution in the mouth until the bitterness rises, and record the retention time. • 5: Quality control. […] Since the experimental objects are biological samples and there are individual differences between different subjects, there may be individual outliers in the experimental test data. The Grubbs test method was used to exclude outliers in the data, and then the experimental data were plotted in tables and curves for data analysis.
It is necessary to process the experimental data. Specifically, the Grubbs test method was used to perform a circular test and elimination of outliers on the data, and a bilateral test was used to eliminate outliers in the oral test. Considering the characteristics of biological samples, the detection level was selected as 0.1 and the elimination level was selected as 0.05 in this experiment.
The experimental medicinal material processing method mentioned in the above technical scheme is as follows: Preparation of bitter standard solution, use 10 g of Coptis chinensis powder, add 100 ml of pure water above 90 degrees, stir, let stand for 20 minutes, take the supernatant for use, determine the standard bitterness of 4.0 degrees by oral tasting, dilute 5 times, determine the standard bitterness of 2.0 degrees, dilute 2.0 degrees again 5 times, determine the standard bitterness of 0.5 degrees. Compare with the bitterness scoring table, (level 1 means “no bitterness or almost no bitterness”, the bitterness value is 0.5˜1.5; level 2 means “slightly bitter”, the bitterness value is 1.5˜2.5; level 3 means “bitter but acceptable”, the bitterness value is 2.5˜3.5; level 4 means “very bitter, but still tolerable”, the bitterness value is 3.5˜4.5; level 5 means “unbearable bitterness”, the bitterness value is 4.5˜5.5). Adjust the judgment and cognition of bitterness.
The standard bitterness solution used in this experiment to verify the experimental effect is a 4.0 degree bitterness solution of Coptis chinensis prepared according to the above method.

The mark [1] stands for this setting: 0.2% solution in 60% ethanol as oral spray.
Where [2] appears, read: 0.2% solution in 60% ethanol as oral spray, relative to original bitterness 4.0.
The mark [3] stands for this setting: concentration 0.001% in 60% ethanol.
[4] abbreviates: concentration 0.005% in 60% ethanol.
The mark [5] stands for this setting: concentration 0.02% in 60% ethanol.
Setting [6] is: concentration 0.10% in 60% ethanol.
The mark [7] stands for this setting: concentration 0.50% in 60% ethanol.

Like-named read-outs stand apart in the source and are kept apart here. A value given as a limit tells only on which side of the number the result lay.

Take `C=CC(C)(O)CCC=C(C)C` (centres unmarked) [Linalool, linalool]: the “Duration >” value under setting [1] is listed as more than 30 s. Also, under setting [2], the inhibition in vivo at 0.2 % amounted to 52.5%. For the same molecule, the “bitterness value after drug” value under setting [3] worked out at 3.5; the “bitterness value after drug” value under setting [4] is 2.5; the “bitterness value after drug” value under setting [5] stood at 2.1; the “bitterness value after drug” value under setting [6] turned out to be 1.9; the “bitterness value after drug” value under setting [7] is recorded as 1.9.
`CCCCC[C@H](O)CC(=O)CCc1ccc(O)c(OC)c1` [Gingerol, 6-gingerol]: under setting [1], the “Duration >” value was more than 20 s. Besides, under setting [2], the inhibition in vivo at 0.2 % is 55%. The “bitterness value after drug” value is 4 under setting [3]; 2.4 under setting [4]; 2.1 under setting [5]; 1.8 under setting [6]; 1.8 under setting [7].
Consider `CC1CCC(C(C)C)C(=O)C1` (centres unmarked) [Menthone, 5-methyl-2-isopropylcyclohexanone], for which the “Duration >” value under setting [1] is given as more than 30 s. The inhibition in vivo at 0.2 % under setting [2] worked out at 70%. The “bitterness value after drug” value under setting [3] was 2.5; the “bitterness value after drug” value under setting [4] worked out at 2.1; the “bitterness value after drug” value under setting [5] turned out to be 1.4; the “bitterness value after drug” value under setting [6] was determined as 1.2; the “bitterness value after drug” value under setting [7] is reported as 1.1.
On to `O=CC=Cc1ccccc1` [Cinnamaldehyde, 3-phenyl-2-propenal], for which the “Duration >” value under setting [1] was more than 50 s. In addition, the inhibition in vivo at 0.2 % under setting [2] was found to be 72.5%. For the same molecule, the “bitterness value after drug” value runs as follows: under setting [3], 3.5; under setting [4], 2.6; under setting [5], 1.5; under setting [6], 1.1; under setting [7], 1.2.
Consider `COc1cc(C(=O)O)ccc1O` [Vanillic acid, 3-methoxy-4-hydroxybenzoic acid], for which, under setting [1], the “Duration >” value is recorded as more than 50 s. Further, the inhibition in vivo at 0.2 % under setting [2] is 27.5%.
Take `COc1ccc(CCN(C)CCCC(C#N)(c2ccc(OC)c(OC)c2)C(C)C)cc1OC` (centres unmarked) [Verapamil, 5-((3,4-dimethoxyphenylethyl)methylamino)-2-(3,4-dimethoxyphenyl)-2-isopropylvaleronitrile, reference compound]: where the note is “po”, the inhibition in vivo at 0.2 % is 0%.
For `CC(C)[C@@H]1CC[C@@H](C)C[C@H]1OC(=O)CCC(=O)O` [Menthyl succinate], the Reduction of bitterness (0.2% solution in 60% ethanol as oral spray, original bitterness average 4.0, average of 31 cases) is on record as 1.6. The Reduction range under setting [2] came to 40.00%. For the same molecule, under setting [1], the “Duration >” value is given as more than 10 s. For the same molecule, the “bitterness value after drug” value reads like this: under setting [3], 3.2; under setting [4], 2.8; under setting [5], 2.6; under setting [6], 2.4; under setting [7], 2.1.
For `CC(C)=CCCC(C)=CC=O` [Citral, citral], the “Duration >” value under setting [1] is more than 30 s. Besides, under setting [2], the inhibition in vivo at 0.2 % was determined as 57.5%. Moreover, the “bitterness value after drug” value by setting is: under setting [3], 3.7; under setting [4], 2.8; under setting [5], 2.1; under setting [6], 1.7; under setting [7], 1.9.
`C=CCc1ccc(OC(C)=O)c(OC)c1` [Eugenol acetate]: the “Duration >” value under setting [1] is more than 60 s. In addition, the inhibition in vivo at 0.2 % under setting [2] turned out to be 60%. The “bitterness value after drug” value reads like this: under setting [3], 3.8; under setting [4], 3.2; under setting [5], 2.3; under setting [6], 1.6; under setting [7], 1.4.
